From PubChem BioAssay (NCI)
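Step 1: Grow cells in 96-well plates. Step 2: Expose to compound for 48 hours at 5 concentrations. Step 3: Interpolate endpoints linearly; if unreached, use highest concentration. TGI denotes the concentration required for complete inhibition of growth.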

Experiments:
Assay in all cases: growth of human tumour cells (NCI), 48 h
[1] = system: MALME-3M melanoma
[2] = system: HCT-15 colon
[3] = system: UO-31 renal
[4] = system: SF-539 CNS
[5] = system: NCI/ADR-RES ovarian
[6] = system: SW-620 colon
[7] = system: TK-10 renal
[8] = system: NCI-H23 lung
[9] = system: SNB-19 CNS
[10] = system: NCI-H460 lung
[11] = system: COLO 205 colon
[12] = system: CCRF-CEM leukemia
[13] = system: HOP-62 NSCLC
[14] = system: SK-OV-3 ovarian
[15] = system: SK-MEL-5 melanoma
[16] = system: EKVX NSCLC
[17] = system: 786-0 renal
[18] = system: KM12 colon
[19] = system: MCF7 breast
[20] = system: SK-MEL-28 melanoma
[21] = system: HS 578T breast
[22] = system: HCC-2998 colon
[23] = system: M14 melanoma
[24] = system: A549 NSCLC
[25] = system: NCI-H522 lung
[26] = system: SK-MEL-2 melanoma
[27] = system: CAKI-1 renal
[28] = system: IGROV1 ovarian
[29] = system: BT-549 breast
[30] = system: RPMI-8226 leukemia
[31] = system: UACC-257 melanoma
[32] = system: HCT-116 colon
[33] = system: HOP-92 NSCLC
[34] = system: OVCAR-5 ovarian
[35] = system: ACHN renal
[36] = system: MDA-MB-435
[37] = system: A498 renal
[38] = system: MDA-MB-231 breast
[39] = system: HT29 colon
[40] = system: HL-60(TB) leukemia
[41] = system: RXF 393 renal
[42] = system: U251 CNS
[43] = system: UACC-62 melanoma
[44] = system: T-47D breast
[45] = system: OVCAR-3 ovarian
[46] = system: OVCAR-4 ovarian
[47] = system: K-562 leukemia
[48] = system: MDA-N
[49] = system: SN12C renal
[50] = system: SF-268 CNS
[51] = system: SNB-75 CNS
[52] = system: MOLT-4 leukemia
[53] = system: SF-295 CNS
[54] = system: DU-145 prostate
[55] = system: PC-3 prostate
[56] = system: OVCAR-8 ovarian
[57] = system: NCI-H226 lung
[58] = system: LOX IMVI melanoma

**Q.** With `CN(CCNC(=O)c1nn(-c2ccc(Cl)cc2Cl)c2c1Cc1ccccc1-2)CCNC(=O)c1nn(-c2ccc(Cl)cc2Cl)c2c1Cc1ccccc1-2` as the compound, how does the TGI [1] read?
**A.** The TGI was 3.42 µM.

**Q.** What about the TGI [2] of the same compound?
**A.** Its TGI is 5.97 µM.

**Q.** What about the TGI [3] of the same compound?
**A.** Its TGI is 7.81 µM.

**Q.** What about the TGI [4] of the same compound?
**A.** The TGI was 3.68 µM.

**Q.** What about the TGI [5] of the same compound?
**A.** Its TGI is 14.9 µM.

**Q.** What about the TGI [6] of the same compound?
**A.** Its TGI is 4.88 µM.

**Q.** And the TGI [7]?
**A.** Its TGI is 24.6 µM.

**Q.** What about the TGI [8] of the same compound?
**A.** Its TGI is 30.2 µM.

**Q.** And the TGI [9]?
**A.** Its TGI is > 100 µM.

**Q.** What about the TGI [10] of the same compound?
**A.** The TGI was 4.01 µM.

**Q.** And the TGI [11]?
**A.** The TGI was 3.43 µM.

**Q.** And the TGI [12]?
**A.** The TGI was 7.82 µM.

**Q.** And the TGI [13]?
**A.** The TGI was > 45.8 µM.

**Q.** And the TGI [14]?
**A.** Its TGI is 97.9 µM.

**Q.** What about the TGI [15] of the same compound?
**A.** Its TGI is 3.48 µM.

**Q.** And the TGI [16]?
**A.** The TGI was > 100 µM.

**Q.** What about the TGI [17] of the same compound?
**A.** Its TGI is 4.47 µM.

**Q.** And the TGI [18]?
**A.** The TGI was > 100 µM.

**Q.** And the TGI [19]?
**A.** The TGI was 8.31 µM.

**Q.** And the TGI [20]?
**A.** The TGI was 4.97 µM.

**Q.** What about the TGI [21] of the same compound?
**A.** The TGI was 32.5 µM.

**Q.** And the TGI [22]?
**A.** The TGI was 3.26 µM.

**Q.** And the TGI [23]?
**A.** Its TGI is 3.46 µM.

**Q.** What about the TGI [24] of the same compound?
**A.** Its TGI is 28.8 µM.

**Q.** And the TGI [25]?
**A.** The TGI was 3.71 µM.

**Q.** And the TGI [26]?
**A.** The TGI was 4.32 µM.

**Q.** What about the TGI [27] of the same compound?
**A.** The TGI was > 47.4 µM.

**Q.** And the TGI [28]?
**A.** The TGI was > 100 µM.

**Q.** What about the TGI [29] of the same compound?
**A.** The TGI was 38.2 µM.

**Q.** What about the TGI [30] of the same compound?
**A.** The TGI was 4.5 µM.

**Q.** What about the TGI [31] of the same compound?
**A.** The TGI was 4.72 µM.

**Q.** And the TGI [32]?
**A.** The TGI was 4.45 µM.

**Q.** What about the TGI [33] of the same compound?
**A.** Its TGI is 4.88 µM.

**Q.** What about the TGI [34] of the same compound?
**A.** The TGI was > 87.5 µM.

**Q.** What about the TGI [35] of the same compound?
**A.** The TGI was 29.7 µM.

**Q.** What about the TGI [36] of the same compound?
**A.** Its TGI is 2.43 µM.

**Q.** What about the TGI [37] of the same compound?
**A.** Its TGI is 12.9 µM.

**Q.** What about the TGI [38] of the same compound?
**A.** The TGI was 8.88 µM.

**Q.** And the TGI [39]?
**A.** The TGI was 5.55 µM.

**Q.** And the TGI [40]?
**A.** Its TGI is 3.57 µM.

**Q.** What about the TGI [41] of the same compound?
**A.** Its TGI is 4.54 µM.

**Q.** And the TGI [42]?
**A.** The TGI was 7.27 µM.

**Q.** What about the TGI [43] of the same compound?
**A.** The TGI was 3.48 µM.

**Q.** What about the TGI [44] of the same compound?
**A.** The TGI was > 30.2 µM.

**Q.** And the TGI [45]?
**A.** The TGI was 17.4 µM.

**Q.** And the TGI [46]?
**A.** The TGI was > 20 µM.

**Q.** What about the TGI [47] of the same compound?
**A.** The TGI was > 26.3 µM.

**Q.** What about the TGI [48] of the same compound?
**A.** Its TGI is 4.89 µM.

**Q.** What about the TGI [49] of the same compound?
**A.** The TGI was 20.4 µM.

**Q.** What about the TGI [50] of the same compound?
**A.** Its TGI is > 100 µM.

**Q.** What about the TGI [51] of the same compound?
**A.** The TGI was > 48.2 µM.

**Q.** And the TGI [52]?
**A.** Its TGI is 6.81 µM.

**Q.** And the TGI [53]?
**A.** Its TGI is 5.19 µM.

**Q.** What about the TGI [54] of the same compound?
**A.** Its TGI is > 61.9 µM.

**Q.** And the TGI [55]?
**A.** The TGI was > 100 µM.

**Q.** And the TGI [56]?
**A.** Its TGI is 4.44 µM.

**Q.** `COC(=O)/C=C\C(C#N)(C#N)N=Cc1cccs1` was tested. Which TGI [1] did it give?
**A.** The TGI was 6.61 µM.

**Q.** What about the TGI [2] of the same compound?
**A.** Its TGI is 5.69 µM.

**Q.** And the TGI [3]?
**A.** The TGI was 5.99 µM.

**Q.** What about the TGI [57] of the same compound?
**A.** Its TGI is 20.7 µM.

**Q.** What about the TGI [5] of the same compound?
**A.** Its TGI is 45 µM.

**Q.** What about the TGI [7] of the same compound?
**A.** The TGI was 3.43 µM.

**Q.** What about the TGI [8] of the same compound?
**A.** Its TGI is 27.3 µM.

**Q.** What about the TGI [9] of the same compound?
**A.** The TGI was > 56.5 µM.

**Q.** What about the TGI [10] of the same compound?
**A.** Its TGI is 39.7 µM.

**Q.** What about the TGI [12] of the same compound?
**A.** The TGI was 3.58 µM.

**Q.** What about the TGI [13] of the same compound?
**A.** The TGI was 32.6 µM.

**Q.** What about the TGI [14] of the same compound?
**A.** The TGI was 42.3 µM.

**Q.** What about the TGI [15] of the same compound?
**A.** Its TGI is 11.2 µM.

**Q.** And the TGI [16]?
**A.** Its TGI is 25.2 µM.

**Q.** And the TGI [17]?
**A.** Its TGI is > 46.3 µM.

**Q.** What about the TGI [18] of the same compound?
**A.** Its TGI is 37.8 µM.

**Q.** And the TGI [19]?
**A.** The TGI was 4.06 µM.

**Q.** And the TGI [20]?
**A.** Its TGI is 26 µM.

**Q.** And the TGI [21]?
**A.** Its TGI is 78.3 µM.

**Q.** And the TGI [22]?
**A.** The TGI was 33.8 µM.

**Q.** What about the TGI [23] of the same compound?
**A.** The TGI was 15.4 µM.

**Q.** What about the TGI [24] of the same compound?
**A.** The TGI was > 56 µM.

**Q.** What about the TGI [25] of the same compound?
**A.** Its TGI is 2.24 µM.

**Q.** And the TGI [26]?
**A.** The TGI was 34.3 µM.

**Q.** And the TGI [27]?
**A.** Its TGI is 3.77 µM.

**Q.** And the TGI [28]?
**A.** The TGI was 32 µM.

**Q.** And the TGI [29]?
**A.** The TGI was 19.9 µM.

**Q.** What about the TGI [30] of the same compound?
**A.** The TGI was 7.36 µM.

**Q.** And the TGI [31]?
**A.** The TGI was 27.6 µM.

**Q.** What about the TGI [32] of the same compound?
**A.** Its TGI is > 50.2 µM.

**Q.** What about the TGI [33] of the same compound?
**A.** Its TGI is 3.75 µM.

**Q.** And the TGI [58]?
**A.** The TGI was 6.68 µM.

**Q.** And the TGI [34]?
**A.** The TGI was 22.1 µM.

**Q.** What about the TGI [35] of the same compound?
**A.** Its TGI is 4.12 µM.

**Q.** What about the TGI [36] of the same compound?
**A.** Its TGI is 18 µM.

**Q.** What about the TGI [37] of the same compound?
**A.** Its TGI is 34.3 µM.

**Q.** And the TGI [38]?
**A.** Its TGI is 5.74 µM.

**Q.** What about the TGI [39] of the same compound?
**A.** The TGI was 4.24 µM.

**Q.** What about the TGI [40] of the same compound?
**A.** The TGI was 4.2 µM.

**Q.** What about the TGI [41] of the same compound?
**A.** The TGI was 5.51 µM.

**Q.** And the TGI [42]?
**A.** The TGI was > 53.3 µM.

**Q.** What about the TGI [43] of the same compound?
**A.** The TGI was 25.4 µM.

**Q.** What about the TGI [44] of the same compound?
**A.** Its TGI is 7.51 µM.

**Q.** And the TGI [45]?
**A.** Its TGI is 25.1 µM.

**Q.** And the TGI [46]?
**A.** The TGI was 17 µM.

**Q.** What about the TGI [47] of the same compound?
**A.** The TGI was > 100 µM.

**Q.** And the TGI [48]?
**A.** The TGI was 49.3 µM.

**Q.** And the TGI [49]?
**A.** Its TGI is 38.7 µM.

**Q.** And the TGI [50]?
**A.** The TGI was 32.1 µM.

**Q.** And the TGI [51]?
**A.** Its TGI is 29.3 µM.

**Q.** And the TGI [52]?
**A.** The TGI was > 24.5 µM.

**Q.** What about the TGI [53] of the same compound?
**A.** Its TGI is 42.3 µM.

**Q.** And the TGI [54]?
**A.** The TGI was 24.3 µM.

**Q.** And the TGI [55]?
**A.** Its TGI is 26 µM.

**Q.** And the TGI [56]?
**A.** Its TGI is 14.4 µM.
